The text below walks through data of publication PMC12311725, “Identification of Ginsentide-like Peptides from Cacao Beans with Oxidative Stress Protection” (ACS Omega, 2025).

Where a SMILES comes first, the peptide text is derived from it. Bridges are numbered along the chain shown (N, C = ends).

The nature of series [1]: Peptide stability assay with trypsin (RP-HPLC). In kind it is in vitro ADME. Conditions: isolated enzyme trypsin, trypsin in 0.1 M ammonium bicarbonate buffer pH 8, 37 °C, peptide 0.1 M [sic], RP-HPLC peak area as % of initial, read-out: structural integrity retained (percentage of peptide remaining) after incubation with trypsin. The method, then:
Stability studies were conducted using purified cocotide tC1 (0.1 M) and S-alkylated tC1 (iodoacetamido) under specific buffer conditions. Pepsin stability was assessed by incubating the samples in a mixture of pepsin at a ratio of 50:1 (w/v) in 0.2 M HCl at 37 °C. For trypsin stability, the samples were treated with trypsin in 0.1 M ammonium bicarbonate buffer (pH 8) at 37 °C. Analysis of stability assays involved collecting samples at various time points, which were then analyzed by reversed-phase high-performance liquid chromatography (RP-HPLC) using a linear gradient of mobile phase A (0.05% trifluoroacetic acid in water) and mobile phase B (0.05% trifluoroacetic acid in acetonitrile) on an Aeris Peptide XB-C18 column (Phenomenex). The stability results were expressed as a percentage of the initial concentration and determined by the peak area of the HPLC profile.
7 Proteolytic stability assays of cocotide tC1. Cocotide tC1 was incubated with either pepsin or trypsin at 37 °C for up to 6 h. S-alkylated tC1 was used as the control. At different time points, samples of cocotide tC1 and the control were quantified using reversed-phase high pressure liquid chromatography (RP-HPLC). The relative peak areas of the RP-HPLC profiles were used to quantify the percentage of peptides remaining after incubation with pepsin or trypsin.

The target in the next series is T1, HaCaT cell lysate (Homo sapiens, UniProt P22830).
T1 construct: incubated with HaCaT keratinocyte lysates; endogenous in cells; host or cells: HaCaT human keratinocytes
T1 sequence (P22830 55-423): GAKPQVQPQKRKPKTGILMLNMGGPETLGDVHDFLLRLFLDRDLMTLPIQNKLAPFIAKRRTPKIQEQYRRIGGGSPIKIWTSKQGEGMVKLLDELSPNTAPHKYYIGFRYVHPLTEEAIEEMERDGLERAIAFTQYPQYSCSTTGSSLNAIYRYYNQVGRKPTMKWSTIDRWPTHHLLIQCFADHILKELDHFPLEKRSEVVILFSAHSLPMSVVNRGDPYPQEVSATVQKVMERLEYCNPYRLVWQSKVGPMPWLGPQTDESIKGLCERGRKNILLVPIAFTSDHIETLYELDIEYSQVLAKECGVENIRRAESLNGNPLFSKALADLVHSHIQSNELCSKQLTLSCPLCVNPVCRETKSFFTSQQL
In kind it is binding. Conditions: affinity enrichment mass spectrometry.

Series [2] can be described thus: Iron-binding assay (High-Select Fe-NTA spin column, RP-HPLC of flowthroughs). The conditions noted are these: 1 h at room temperature, six water washes, elution. As to the method:
The High-Select Fe-NTA Phosphopeptide Enrichment Kit (Thermo Fisher Scientific, USA) was used to investigate the iron-binding abilities of cocotide tC1. Briefly, cocotide tC1 was suspended in the binding buffer provided. The spin column was first equilibrated by adding 200 μL of the binding buffer and then centrifuged at 1000 × g for 30 s (Thermo Fisher Scientific, USA). The suspended peptide sample was added to the spin column and incubated for 1 h at room temperature. The sample was then centrifuged again at 1000 × g for 30 s, and the flowthrough was collected. The spin column was then washed six times with 100 μL of deionized water. Each time, the sample was centrifuged at 1000 × g for 30 s before collecting the flowthrough. Finally, 100 μL of the elution buffer provided was added, and the sample was centrifuged at 1000 × g for another 30 s before collecting the final eluted flowthrough. All eight flowthroughs were analyzed by using RP-HPLC.

One may read the fraction remaining as what is left of the initial amount, in per cent. With `CC[C@H](C)[C@@H]1NC(=O)CNC(=O)[C@H](CCSC)NC(=O)[C@@H]2CCCN2C(=O)[C@H](Cc2ccc(O)cc2)NC(=O)[C@H](CC(C)C)NC(=O)[C@@H]2CSSC[C@@H]3NC(=O)[C@H](Cc4ccccc4)NC(=O)CNC(=O)CNC(=O)[C@H](C)NC(=O)[C@H](CO)NC(=O)[C@H](CC(C)C)NC(=O)[C@@H](N)CSSC[C@@H]4NC(=O)[C@H](CSSC[C@H](NC1=O)C(=O)N[C@@H](Cc1ccc(O)cc1)C(=O)NCC(=O)N[C@@H](CO)C(=O)NCC(=O)N[C@H](C(=O)O)CSSC[C@H](NC(=O)[C@H](CC(N)=O)NC(=O)CNC4=O)C(=O)NCC(=O)N2)NC(=O)[C@H](CC(=O)O)NC(=O)[C@H](CCSC)NC(=O)[C@@H]1CCCN1C(=O)[C@H](CC(N)=O)NC(=O)[C@H](Cc1ccccc1)NC(=O)[C@H](CCSC)NC3=O` [cocotide tC1] (H-CLSAGGFCMFNPMDCCGNCGCLYPMGICYGSGC-OH; disulfide 1-16, 8-21, 15-28, 19-33; N-terminus and C-terminus assumed), in series [1], the amount remaining at 6 h is greater than 80%. At HaCaT cell lysate, the “ferrochelatase as interacting protein” value is on record as “significant interacting partner”. Besides, the “interaction with Fe-NTA agarose resin” value in series [2] was “interacts with the Fe-NTA agarose resin”.
